Reference: patent publication US20150225369A1, “DDR2 INHIBITORS FOR THE TREATMENT OF OSTEOARTHRITIS” (Merck Patent GmbH, priority 2012, published 2015)
Read-outs that look alike come from different tables or passages of the source.

Key:
[1] = test system: proMMP13 production by SW1353 cells; test: Production of MMP13 (proMMP13 ELISA) by SW1353 cells upon stimulation with collagen type II; type: cell-based; details: Homo sapiens, read-out: IC50 [pro-MMP13]
Procedure: The binding of Collagen type II to the DDR2 receptor of the SW1353 cells initiate a signalling cascade resulting in the increase of MMP13 expression. MMP13 is released in the culture medium in its pro-form, the proMMP13 which can be measured with an ELISA.
DDR2 inhibitors are evaluated for their ability to block this signalling cascade and therefore proMMP13 production upon collagen stimulation.
SW1353 cells (ATCC, HTB-94), conserved in liquid nitrogen, are thawed and cultivated at 1.6.10^6 cells in a T75 in RPMI1640 supplemented with 2 mM Glutamin, 1 mM Na-Pyruvate, 10% FCS, at 37° C., 5% CO2 for three days. SW1353 cells are then harvested with trypsin/EDTA and resuspended in RPMI1640 supplemented with 2 mM Glutamin, 1 mM Na-Pyruvate, 25 mM HEPES and 0.5% FCS (assay medium) and inoculated in a 96 well plate at 30 000 cells/well in 100 μL of the assay medium and further incubated 24 hours at 37°, 5% CO2 to enable cell adhesion. For stimulation of the DDR2 receptor, 50 μL of a collagen type II solution 160 μg/mL (final concentration in the well is 40 μg/mL) will be added in each well as well as 50 μL of the different dilutions of the inhibitors (MSCs) from 0.003 μM to 10 μM (final concentration in the plate). Each condition is performed in four-plicates. After three additional days of culture, the supernatant will be harvested for proMMP13 measurement.
The Different Controls Present on Each Plate are Composed of Assay Medium with: Positive control (with the reference compound): 40 μg/mL Collagen type II, 0.03 μM Dasatinib (reference compound) in 0.1% DMSO Negative control (no inhibition): 40 μg/mL Collagen type II and 0.1% DMSO Medium control (no stimulation): 0.005% Acetic acid and 0.1% DMSO All wells contains 0.1% DMSO and 0.005% acetic acid.
The solutions needed are: • Collagen type II is diluted at 2 mg/mL in 0.25% acetic acid. This stock solution can be stored at 4° C. for a week and is diluted 1/12.5 in the assay medium (to obtain 160 μg/mL in 0.02% acetic acid) before being used in the assay. • MSCs from 0.012 to 40 μM in assay medium with 0.4% DMSO (they are then further diluted ¼ in the assay plate) • Dasatinib 0.12 μM in assay medium with 0.4% DMSO (it is then further diluted ¼ in the assay plate) • Acetic acid 0.02% in assay medium (control).
The harvested supernatants are either directly used or stored at −20° C. until use. ProMMP13 is measured with a commercial ELISA kit, according the recommendation of the manufacturer (see Annex). Briefly, 50 μL of each samples are used undiluted and the standard curve is realised in the assay medium. At the end of the assay the ELISA plate is read on a Paradigm MTP-Reader (Beckman Coulter) at 540 (reference wavelength) and 450 nm. All the absorbance values obtained at 450 nm are corrected with the absorbance at 540 nm and a ‘Four Parameter Fit’ is used to establish the standard curve. From the standard curve the concentrations of proMMP13 in all the samples are calculated. All the calculations are realised by the Paradigm software.
The data reported in the database are the % effect of the compounds at the two highest concentrations (10 and 3 μM) as well as the IC50.
% effect at the two highest concentrations is calculated according to the formula: […]
The IC50s are calculated with the software Graph Pad Prism (see tables in Example 1).

[2] = target: T1, His-tagged human recombinant DDR-2 kinase domain (His-TEV-DDR2 467-855 aa) (Homo sapiens, UniProt Q16832); test: Autophosphorylation assay for biochemical activity testing of DDR2 (HTRF); details: 4 nM DDR2 kinase domain, 150 μM ATP, 150 min at 22° C.
T1 construct: His-TEV-DDR2 467-855 aa
T1 sequence (Q16832 467-855): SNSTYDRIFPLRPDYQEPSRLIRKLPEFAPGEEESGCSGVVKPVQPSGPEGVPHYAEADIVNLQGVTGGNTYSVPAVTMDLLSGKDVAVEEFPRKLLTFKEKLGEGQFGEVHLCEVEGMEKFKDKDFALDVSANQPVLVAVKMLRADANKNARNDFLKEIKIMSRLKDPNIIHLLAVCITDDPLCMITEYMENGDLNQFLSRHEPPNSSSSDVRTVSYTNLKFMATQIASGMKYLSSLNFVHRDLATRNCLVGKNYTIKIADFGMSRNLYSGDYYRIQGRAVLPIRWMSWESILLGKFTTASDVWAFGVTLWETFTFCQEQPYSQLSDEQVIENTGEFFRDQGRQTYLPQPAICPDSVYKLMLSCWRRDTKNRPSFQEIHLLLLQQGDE
Method in brief: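 Phospho-tyrosine was detected by HTRF between XL665 anti-6His and cryptate anti-phosphotyrosine PT66 antibodies, using the emission ratio. Inhibition was referenced to the inhibitor-free reaction.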

[3] = 72 h, SW1353 cells, 40 μg/mL collagen type II, three days

IC50 [1, 3] [nM]	IC50 [2] [nM]	SMILES	IC50 ([1]; SW1353, 72 h) [nM]
69	44	CNC(=O)c1cc(Oc2ccc(CNC(=O)Nc3cc(Cl)cnc3OC)cc2)ccn1 [compound 21]	
960	100	Cc1cc(Oc2ccc(CNC(=O)Nc3cc(C(F)(F)F)cnc3Cl)cc2C)ccn1 [compound 30]	
45.4	37	CNC(=O)c1cc(Oc2ccc(CNC(=O)Nc3cc(Cl)cnc3OC)cc2C)ccn1 [compound 23]	
348	110	COc1ncc(Cl)cc1NC(=O)NCc1ccc(Oc2ccnc(C)c2)c(C)c1 [compound 28]	
32.9	37	CNC(=O)c1cc(Oc2ccc(CNC(=O)Nc3cc(C(F)(F)F)cn(C)c3=O)cc2C)ccn1 [compound 7]	
733	100	COc1ncc(C)cc1NC(=O)NCc1ccc(Oc2ccncc2)cc1 [compound 18]	
258	110	Cc1cc(Oc2ccc(CNC(=O)Nc3cc(C(F)(F)F)cn(C)c3=O)cc2C)ccn1 [compound 6]	
42.4	52	CNC(=O)c1cc(Oc2ccc(CNC(=O)Nc3cc(C(F)(F)F)cnc3Cl)cc2C)ccn1 [compound 26]	
155	63	CNC(=O)c1cc(Oc2ccc(CNC(=O)Nc3cc(C)cnc3OC)cc2)ccn1 [compound 19]	

SMILES	IC50 [1, 3] [nM]	IC50 [2] [nM]	IC50 ([1]; SW1353, 72 h) [nM]
CNC(=O)c1cc(Oc2ccc(CNC(=O)Nc3cc(C(F)(F)F)cn(C)c3=O)cc2)ccn1 [compound 8]		97	14.8
